Results reported in patent US12553889B2, “Small molecules targeting the intrinsically disordered structural ensemble of α-synuclein protect against diverse α-synuclein mediated dysfunctions” (The Regents of the University of California, priority 2019, dated 2026).
Entries after “also recorded” stand apart in the source; their conditions may differ.

What was measured:
A53T αSyn = assay: Dopaminergic neuron viability assay, A53T αSyn adenovirus transduced primary midbrain cultures; assay type: cell-based, rat
Protocol: Primary midbrain cultures were prepared and dopaminergic neuronal viability in the presence and absence of αSyn was assessed as previously described and repeated herein. Primary midbrain cultures were prepared from embryonic day 17 embryos of Sprague-Dawley rats using methods reviewed and approved by the Purdue Animal Care and Use Committee as described previously. After dissection, the cells were plated into a poly-L-lysine-treated 48-well plate at a density of 163,500 cells per well. Four days later, the cells were treated with cytosine arabinofuranoside (AraC) (20 μM) for 48 hours to inhibit the growth of glial cells. The cultures were used for measurements of dopaminergic neuron viability at 7 days in vitro. […] In order to determine the viability of dopaminergic neurons, MAP2- and TH-positive neurons were counted in 10 to 15 randomly chosen observation fields in a blinded manner using a Nikon TE2000-U inverted fluorescence microscope (Nikon Instruments, Melville NY) with a 20× objective. In the control conditions, and in conditions where the compound was neuroprotective, typically 500 to 1,300 MAP2-positive neurons were counted, a range that corresponds to 20 to 50 TH-positive neurons. The data were expressed as the ratio of the TH-positive neurons to the MAP2-positive neurons. […]

[1] = tested on: H4 SL1 & SL2 neuroglioma cell line; assay: Cell model of αSyn aggregate formation (phospho-S129 αSyn staining, ARRAYSCAN); assay type: cell-based; details: 100 μM and 150 μM, 45 hours
Protocol: Next, 583854 was tested for impact on αSyn aggregation in a cell model of αSyn aggregate formation. Split Gaussian luciferase tagged αSyn overexpression was induced in the H4 SL1 & SL2 neuroglioma cell line by tetracycline addition (Moussaud, S., et al. (2015)). αSyn aggregates were visualized by staining fixed (4% PFA) cells with the S129 phosphorylated αSyn specific antibody 11A5 at 1 μg/ml (Anderson, J. P. et al. (2006)) using a green fluorescently labelled secondary antibody. Nuclei were stained with a blue Hoescht nuclear dye. Uninduced cells contained no phospho-αSyn staining and induced cells contain abundant phospho-αSyn aggregates. The cells were imaged for nuclei (blue, diffuse circular staining as in the Uninduced sample)) and phospho-αSyn (green punctate staining) on an ARRAYSCAN automated imaging platform (FIG. 23A), αSyn aggregates were quantitated using the ARRAYSCAN spot-detector algorithm. Cells were induced for αSyn by tetracycline addition and 583854 was added 3 to 4 hours later. At 48 hours after tetracycline addition the cells are washed in PBS and […] with 4% PFA.

| SMILES | effect on A53T αSyn neurotoxicity (TH-positive/MAP2-positive neurons) (A53T αSyn; 10 μM) | effect on A53T αSyn neurotoxicity (TH-positive/MAP2-positive neurons) (A53T αSyn; 60 μM) | impact on αSyn aggregates (phospho-αSyn) [1] |
| --- | --- | --- | --- |
| CNC(=O)c1cc(O)ccc1N [Compound 576755, 2-amino-5-hydroxy-N-methylbenzamide] | a trend towards a similar inhibitory effect | suppressed A53T αSyn neurotoxicity; also recorded: alleviates loss of dopaminergic neurons |  |
| CNC(=O)c1cc(O)ccc1O [Compound 583854, 2,5-dihydroxy-N-methylbenzamide] |  |  | reduced αSyn aggregates |
